Data published in patent publication US12077503B2, “Substituted cyclic amides and their use as herbicides” (FMC CORPORATION, priority 2015, dated 2024).
Like-named read-outs stand apart in the source and are kept apart here.

Experiments:
Format in all cases: in vivo
[1] = test system: pigweed (Amaranthus retroflexus); assay: Test A preemergence; settings: Amaranthus retroflexus, pre-emergence, 240 h; for pest or weed control at 125 g/ha: 125 g ai/ha; for pest or weed control at 500 g/ha: 500 g ai/ha
[2] = test system: ducksalad (Heteranthera limosa); assay: Test B flooded paddy test; settings: Heteranthera limosa, 250 g ai/ha, Flood, read-out: Ducksalad plant response rating
Method in brief: (§1)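 Percent control, visually estimated after 13–15 d in the greenhouse on a 0–100 basis, compares treated pots with untreated ones; compound was put into paddy water 3 cm above the soil when plants had two leaves.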

[3] = test system: sedge, umbrella (small-flower umbrella sedge, Cyperus difformis); assay: Test B flooded paddy test; settings: Cyperus difformis, 250 g ai/ha, Flood, read-out: Sedge, Umbrella plant response rating
Method in brief: as §1

[4] = test system: rice (Oryra sativa); assay: Test B flooded paddy test; settings: Oryza sativa, 250 g ai/ha, Flood, read-out: Rice plant response rating
Method in brief: as §1

[5] = test system: barnyardgrass (Echinochloa crus-galli); assay: Test B flooded paddy test; settings: Echinochloa crus-galli, 250 g ai/ha, Flood, read-out: Barnyardgrass plant response rating
Method in brief: as §1

[6] = test system: pigweed (Amaranthus retroflexus); assay: Test A postemergence; settings: Amaranthus retroflexus, post-emergence, 240 h, postemergence; for pest or weed control at 125 g/ha: 125 g ai/ha
Method in brief: (§2)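 Treatment is preemergence as a directed soil spray after planting, or postemergence at the one- to two-leaf stage, with test chemical in a non-phytotoxic solvent mixture plus surfactant. Plants stay in the greenhouse about 10 d before visual injury scoring on a 0 to 100 scale versus untreated controls.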

[7] = test system: Kochia (Kochia scoparia); assay: Test A postemergence; settings: Bassia scoparia, post-emergence, 240 h, postemergence; for pest or weed control at 125 g/ha: 125 g ai/ha
Method in brief: as §2

[8] = test system: blackgrass (Alopecurus myosuroides); assay: Test A postemergence; settings: Alopecurus myosuroides, post-emergence, 240 h, postemergence; for pest or weed control at 125 g/ha: 125 g ai/ha
Method in brief: as §2

[9] = test system: corn (Zea mays); assay: Test A postemergence; settings: Zea mays, post-emergence, 240 h, postemergence; for plant injury at 125 g/ha: 125 g ai/ha
Method in brief: as §2

[10] = test system: giant foxtail (Setaria faberii); assay: Test A postemergence; settings: Setaria faberi, post-emergence, 240 h, postemergence; for pest or weed control at 125 g/ha: 125 g ai/ha
Method in brief: as §2

[11] = test system: ryegrass, Italian (Italian ryegrass, Lolium multiflorum); assay: Test A postemergence; settings: Lolium multiflorum, post-emergence, 240 h, postemergence; for pest or weed control at 125 g/ha: 125 g ai/ha
Method in brief: as §2

[12] = test system: ragweed (common ragweed, Ambrosia elatior); assay: Test A postemergence; settings: Ambrosia artemisiifolia, post-emergence, 240 h, postemergence; for pest or weed control at 125 g/ha: 125 g ai/ha
Method in brief: as §2

[13] = test system: wheat (Triticum aestivum); assay: Test A postemergence; settings: Triticum aestivum, post-emergence, 240 h, postemergence; for plant injury at 125 g/ha: 125 g ai/ha
Method in brief: as §2

[14] = test system: Galium (catchweed bedstraw, Galium aparine); assay: Test A postemergence; settings: Galium, post-emergence, 240 h, postemergence; for pest or weed control at 125 g/ha: 125 g ai/ha
Method in brief: as §2

[15] = test system: barnyardgrass (Echinochloa crus-galli); assay: Test A postemergence; settings: Echinochloa crus-galli, post-emergence, 240 h, postemergence; for pest or weed control at 125 g/ha: 125 g ai/ha
Method in brief: as §2

[16] = preemergence, 0 to 100 scale where 0 is no effect and 100 is complete control, read-out: Pigweed plant response rating
[17] = 0 to 100 scale where 0 is no effect and 100 is complete control
[18] = Preemergence, visual injury vs untreated controls after approximately 10 d, read-out: Pigweed plant response rating (0 to 100 scale where 0 is no effect and 100 is complete control)
[19] = scale of 0 to 100 where 0 is no effect and 100 is complete control
[20] = visual injury rating after approximately 10 d, read-out: Pigweed plant response rating (0 to 100 scale, 0 no effect, 100 complete control)
[21] = visual injury rating after approximately 10 d, read-out: Kochia plant response rating (0 to 100 scale, 0 no effect, 100 complete control)
[22] = visual injury rating after approximately 10 d, read-out: Blackgrass plant response rating (0 to 100 scale, 0 no effect, 100 complete control)
[23] = visual injury rating after approximately 10 d, read-out: Corn plant response rating (0 to 100 scale, 0 no effect, 100 complete control)
[24] = visual injury rating after approximately 10 d, read-out: Foxtail, Giant plant response rating (0 to 100 scale, 0 no effect, 100 complete control)
[25] = visual injury rating after approximately 10 d, read-out: Ryegrass, Italian plant response rating (0 to 100 scale, 0 no effect, 100 complete control)
[26] = visual injury rating after approximately 10 d, read-out: Ragweed plant response rating (0 to 100 scale, 0 no effect, 100 complete control)
[27] = visual injury rating after approximately 10 d, read-out: Wheat plant response rating (0 to 100 scale, 0 no effect, 100 complete control)
[28] = visual injury rating after approximately 10 d, read-out: Galium plant response rating (0 to 100 scale, 0 no effect, 100 complete control)
[29] = visual injury rating after approximately 10 d, read-out: Barnyardgrass plant response rating (0 to 100 scale, 0 no effect, 100 complete control)

SMILES: CN1C[C@H](c2ccc(C(F)(F)F)cc2)[C@](F)(C(=O)Nc2cccc(F)c2F)C1=O (racemic) [Compound 1152]
- pest or weed control at 125 g/ha ([1]; preemergence, 0 to 100 scale where 0 is no effect and 100 is complete control, approx. 10 d, read-out: Pigweed plant response rating): 60%
- pest or weed control at 500 g/ha [1, 16]: 80%
- pest or weed control at 250 g/ha [2, 17]: 0%
- pest or weed control at 250 g/ha [3, 17]: 0%
- pest or weed control at 250 g/ha [4, 17]: 0%
- pest or weed control at 250 g/ha [5, 17]: 0%
- pest or weed control at 125 g/ha ([6]; visual injury vs untreated controls after approx. 10 d, 0 = no effect, 100 = complete control, read-out: Pigweed plant response rating (0 to 100 scale)): 0%
- pest or weed control at 500 g/ha ([6]; 500 g ai/ha, 0 to 100 scale, 0 is no effect, 100 is complete control, read-out: Pigweed plant response rating): 0%
- pest or weed control at 125 g/ha ([7]; visual injury on 0 to 100 scale (0 no effect, 100 complete control), approx. 10 d, read-out: Kochia plant response rating): 0%
- pest or weed control at 500 g/ha ([7]; 500 g ai/ha, 0 to 100 scale, 0 is no effect, 100 is complete control, read-out: Kochia plant response rating): 0%
- pest or weed control at 125 g/ha ([8]; visual injury on 0 to 100 scale (0 no effect, 100 complete control), approx. 10 d, read-out: Blackgrass plant response rating): 0%
- pest or weed control at 500 g/ha ([8]; 500 g ai/ha, 0 to 100 scale, 0 is no effect, 100 is complete control, read-out: Blackgrass plant response rating): 0%
- plant injury at 125 g/ha ([9]; visual injury on 0 to 100 scale (0 no effect, 100 complete control), approx. 10 d, read-out: Corn plant response rating): 0%
- plant injury at 500 g/ha ([9]; 500 g ai/ha, 0 to 100 scale, 0 is no effect, 100 is complete control, read-out: Corn plant response rating): 0%
- pest or weed control at 125 g/ha ([10]; visual injury on 0 to 100 scale (0 no effect, 100 complete control), approx. 10 d, read-out: Foxtail, Giant plant response rating): 20%
- pest or weed control at 500 g/ha ([10]; 500 g ai/ha, 0 to 100 scale, 0 is no effect, 100 is complete control, read-out: Foxtail, Giant plant response rating): 40%
- pest or weed control at 125 g/ha ([11]; visual injury vs untreated controls after approx. 10 d, 0 = no effect, 100 = complete control, read-out: Ryegrass, Italian plant response rating (0 to 100 scale)): 0%
- pest or weed control at 500 g/ha ([11]; 500 g ai/ha, 0 to 100 scale, 0 is no effect, 100 is complete control, read-out: Ryegrass, Italian plant response rating): 0%
- pest or weed control at 125 g/ha ([12]; visual injury vs untreated controls after approx. 10 d, 0 = no effect, 100 = complete control, read-out: Ragweed plant response rating (0 to 100 scale)): 0%
- pest or weed control at 500 g/ha ([12]; 500 g ai/ha, 0 to 100 scale, 0 is no effect, 100 is complete control, read-out: Ragweed plant response rating): 0%
- plant injury at 125 g/ha ([13]; visual injury vs untreated controls after approx. 10 d, 0 = no effect, 100 = complete control, read-out: Wheat plant response rating (0 to 100 scale)): 0%
- plant injury at 500 g/ha ([13]; 500 g ai/ha, 0 to 100 scale, 0 is no effect, 100 is complete control, read-out: Wheat plant response rating): 0%
- pest or weed control at 125 g/ha ([14]; visual injury on 0 to 100 scale (0 no effect, 100 complete control), approx. 10 d, read-out: Galium plant response rating): 0%
- pest or weed control at 500 g/ha ([14]; 500 g ai/ha, 0 to 100 scale, 0 is no effect, 100 is complete control, read-out: Galium plant response rating): 20%
- pest or weed control at 125 g/ha ([15]; visual injury on 0 to 100 scale (0 no effect, 100 complete control), approx. 10 d, read-out: Barnyardgrass plant response rating): 0%
- pest or weed control at 500 g/ha ([15]; 500 g ai/ha, 0 to 100 scale, 0 is no effect, 100 is complete control, read-out: Barnyardgrass plant response rating): 0%

SMILES: CN1C[C@H](c2cccc(COC(F)F)c2)[C@@H](C(=O)Nc2cccc(F)c2F)C1=O [Compound 873]
- pest or weed control at 125 g/ha [1, 16]: 40%
- pest or weed control at 500 g/ha [1, 18]: 50%
- pest or weed control at 250 g/ha [2, 19]: 100%
- pest or weed control at 250 g/ha [3, 19]: 50%
- pest or weed control at 250 g/ha [4, 19]: 0%
- pest or weed control at 250 g/ha [5, 19]: 85%
- pest or weed control at 125 g/ha [6, 20]: 30%
- pest or weed control at 125 g/ha [7, 21]: 60%
- pest or weed control at 125 g/ha [8, 22]: 50%
- plant injury at 125 g/ha [9, 23]: 70%
- pest or weed control at 125 g/ha [10, 24]: 90%
- pest or weed control at 125 g/ha [11, 25]: 40%
- pest or weed control at 125 g/ha [12, 26]: 30%
- plant injury at 125 g/ha [13, 27]: 30%
- pest or weed control at 125 g/ha [14, 28]: 50%
- pest or weed control at 125 g/ha [15, 29]: 90%

SMILES: COc1cccc(C2CN(C)C(=O)C2C(=O)Nc2cccc(F)c2F)c1 (stereo not shown) [Compound 886]
- pest or weed control at 125 g/ha [1, 16]: 0%
- pest or weed control at 500 g/ha [1, 18]: 0%
- pest or weed control at 250 g/ha [2, 19]: 50%
- pest or weed control at 250 g/ha [3, 19]: 0%
- pest or weed control at 250 g/ha [4, 19]: 0%
- pest or weed control at 250 g/ha [5, 19]: 75%
- pest or weed control at 125 g/ha [6, 20]: 0%
- pest or weed control at 125 g/ha [7, 21]: 0%
- pest or weed control at 125 g/ha [8, 22]: 20%
- plant injury at 125 g/ha [9, 23]: 40%
- pest or weed control at 125 g/ha [10, 24]: 90%
- pest or weed control at 125 g/ha [11, 25]: 20%
- pest or weed control at 125 g/ha [12, 26]: 0%
- plant injury at 125 g/ha [13, 27]: 0%
- pest or weed control at 125 g/ha [14, 28]: 0%
- pest or weed control at 125 g/ha [15, 29]: 90%
